Experimental findings from ChEMBL document CHEMBL5053488, “Motobamide, an Antitrypanosomal Cyclic Peptide from a Leptolyngbya sp. Marine Cyanobacterium” (J Nat Prod, 2021) are described below.

Activity calls are given as the source filed them. No cut-off for these calls is given here. Numbered stars: 1 amine (or outer) side, 2 acyl side, 3 side chain; on linkers, the order of the positions; unused ones are H or OH. Square brackets hold non-standard residues; d marks the D form. Peptide text beside a SMILES is read from it. X1 = CC(C)=CC[C@@]12C[C@@H](C(=O)[*:2])N([*:1])[C@@H]1Nc1ccccc12 Where only a bound is given, the exact number is not on record here.

For assay [1], the system named is Trypanosoma brucei rhodesiense. Put plainly: Antitrypanosomal activity against Trypanosoma brucei rhodesiense IL-1501 assessed as parasite growth inhibition incubated for 69 hrs by AlamarBlue assay. In kind it is functional, organism-based. The note with it: IL-1501, 69 h. (Alamar Blue is a resazurin reagent that responds to reducing activity.)
In a further assay the test system is WI-38. Put plainly: Cytotoxicity against human WI-38 cells assessed as cell growth inhibition measured after 72 hrs by MTT assay. It counts as cell-based. The note with it: WI-38, 72 h. For orientation: Tetrazolium assays rely on reduction of a dye to a coloured formazan, in cell work by metabolically active cells.
The nature of assay [2]: Ratio of IC50 for cytotoxicity against human WI-38 cells to IC50 for antitrypanosomal activity against Trypanosoma brucei rhodesiense IL-1501.
Another assay has as its system HL-60. Put plainly: Growth inhibition of human HL-60 cells at 10 uM incubated for 72 hrs by MTT assay. It counts as functional, cell-based.
In the next assay the test system is HeLa. Description: Growth inhibition of human HeLa cells at 10 uM incubated for 72 hrs by MTT assay. It counts as functional, cell-based.

For orientation: IC50 means the concentration that gives 50% inhibition. Turning to `CSCC[C@@H]1NC(=O)[C@@H]2CCCN2C(=O)[C@H](C(C)C)NC(=O)[C@@H]2CCCN2C(=O)[C@@H]2CCCN2C(=O)[C@H](CC(C)C)NC(=O)[C@@H]2C[C@@]3(CC=C(C)C)c4ccccc4N[C@H]3N2C(=O)[C@@H]2CCCN2C(=O)[C@H](C(C)C)NC(=O)[C@H](CC(C)C)NC1=O` (cyclo(LPPVPMLVP[X1])), the IC50 in assay [1] came out at 2.3 µM; with WI-38, 55 µM. The “Ratio IC50” value in assay [2] is on record as >20. For the same molecule, the “growth inhibition (GI)” value in the assay on HL-60 and in the assay with HeLa was “inactive” throughout.
